Data as given in patent US6706663B2, “Herbicidal 3-heterocyclic substituted benzisothiazole and benzisoxazole compounds” (Wyeth, priority 2000, dated 2004).

How the values were obtained:
[1] = test system: ECHCG (Echinochloa crus-galli); assay: Postemergence herbicidal evaluation; type: in vivo, (L.) Beau; details: postemergence
Procedure, shortened: (§1)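 Visual 0–9 injury scores versus control plants, covering stand, vigour, malformation, size, chlorosis and general appearance, taken four to five weeks post-spray and averaged over replicate tests. Plants were sprayed at roughly two weeks old and held on greenhouse benches.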

[2] = test system: CASOB (Cassia obtusifolia); assay: Preemergence herbicidal evaluation; type: in vivo, L.; details: rated 4-5 weeks after treatment
Procedure, shortened: (§2)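 Rating 0–9, visual, vs control; 4–5 wk after spraying seeded cups with compound in aq. acetone; conventional greenhouse care.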

[3] = test system: AMBEL (Ambrosia artemisifolia); assay: Preemergence herbicidal evaluation; type: in vivo, L.; details: rated 4-5 weeks after treatment
Procedure, shortened: as §2

[4] = test system: CHEAL (Chenopodium album); assay: Preemergence herbicidal evaluation; type: in vivo, L.; details: rated 4-5 weeks after treatment
Procedure, shortened: as §2

[5] = test system: TRZAWR (Wheat, Winter, cv Riband); assay: Preemergence herbicidal evaluation; type: in vivo, Triticum aestivum; details: rated 4-5 weeks after treatment
Procedure, shortened: as §2

[6] = test system: TRZAWR (Wheat, Winter, cv Riband); assay: Postemergence herbicidal evaluation; type: in vivo, Triticum aestivum; details: postemergence
Procedure, shortened: as §1

[7] = test system: IPOHE (Ipomoea hederacea); assay: Postemergence herbicidal evaluation; type: in vivo, (L.) Jacq.; details: postemergence
Procedure, shortened: as §1

ORYSAT (Rice, Tebonnet) [8] = assay: Preemergence herbicidal evaluation; type: in vivo, Oryza sativa, (L.) Tebonnet; details: rated 4-5 weeks after treatment
[9] = test system: CASOB (Cassia obtusifolia); assay: Postemergence herbicidal evaluation; type: in vivo, L.; details: postemergence
Procedure, shortened: as §1

[10] = test system: AMBEL (Ambrosia artemisifolia); assay: Postemergence herbicidal evaluation; type: in vivo, L.; details: postemergence
Procedure, shortened: as §1

[11] = test system: CHEAL (Chenopodium album); assay: Postemergence herbicidal evaluation; type: in vivo, L.; details: postemergence
Procedure, shortened: as §1

[12] = test system: ECHORC (Echinochloa oryzoides); assay: Flooded paddy, preemergence weed control; type: in vivo, Echinochloa oryzoides (Ard.) Fritsch.; details: rated 3-4 weeks after treatment, 0-9 rating scale
Procedure, shortened: (§3)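 Greenhouse paddy test, preemergence. Seeds planted in the top 0.5 cm of silt loam soil, which remained flooded at 1.5–3 cm depth. Scored 0-9 by visual comparison with control.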

[13] = test system: ABUTH (Abutilon theophrasti); assay: Preemergence herbicidal evaluation; type: in vivo, Medic.; details: rated 4-5 weeks after treatment
ORYSAT (Rice, Tebonnet) [14] = assay: Postemergence herbicidal evaluation; type: in vivo, Oryza sativa, (L.) Tebonnet; details: postemergence
Procedure, shortened: as §1

ORYSAT (Rice, Tebonnet) [15] = assay: Flooded paddy, post-transplant rice tolerance; type: in vivo, Oryza sativa, (L.) Tebonnet; details: flooded paddy, post-transplant rice, rated 3-4 weeks after treatment, 0-9 rating scale
Procedure, shortened: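 Two ten-day-old seedlings were transplanted into silt loam, flooded and held at 1.5 to 3 cm water above the soil before herbicide treatment. Pots stayed in the greenhouse at that water level. Injury was scored visually on a 0-9 scale versus untreated control.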

ZEAMX (Corn, Field) = assay: Postemergence herbicidal evaluation; type: in vivo, Zea mays, L.; details: postemergence
Procedure, shortened: as §1

[16] = test system: ABUTH (Abutilon theophrasti); assay: Postemergence herbicidal evaluation; type: in vivo, Medic.; details: postemergence
Procedure, shortened: as §1

[17] = test system: SAGPY (Sagittaria pygmaea); assay: Flooded paddy, preemergence weed control; type: in vivo, L.; details: rated 3-4 weeks after treatment, 0-9 rating scale
Procedure, shortened: as §3

Cc1sccc1-c1nsc2ccc(-n3c(=O)cc(C(F)(F)F)n(C)c3=O)cc12 [Compound 68, 2,4(1H,3H)-pyrimidinedione, 1-methyl-3-[3-(2-methyl-3-thienyl)-1,2-benzisothiazol-5-yl]-6-(trifluoromethyl)-]
9.0: Preemergence herbicidal rating AMBEL ([3]; Rate 0.2500 kg/ha) | Preemergence herbicidal rating CHEAL ([4]; Rate 0.0620 kg/ha) | Preemergence herbicidal rating CHEAL ([4]; Rate 0.1250 kg/ha) | Preemergence herbicidal rating CHEAL ([4]; Rate 0.2500 kg/ha) | IPOHE herbicidal rating ([7]; rate 0.0320 kg/ha) | IPOHE herbicidal rating ([7]; rate 0.0620 kg/ha) | AMBEL herbicidal rating ([10]; rate 0.0320 kg/ha) | AMBEL herbicidal rating ([10]; rate 0.0620 kg/ha) | CHEAL herbicidal rating ([11]; rate 0.0320 kg/ha) | CHEAL herbicidal rating ([11]; rate 0.0620 kg/ha) | herbicidal rating, ECHORC ([12]; rate 0.1250 kg/ha) | Preemergence herbicidal rating ABUTH ([13]; Rate 0.1250 kg/ha) | Preemergence herbicidal rating ABUTH ([13]; Rate 0.2500 kg/ha) | ABUTH herbicidal rating ([16]; rate 0.0320 kg/ha) | ABUTH herbicidal rating ([16]; rate 0.0620 kg/ha) | herbicidal rating, SAGPY ([17]; rate 0.1250 kg/ha)
6.0: CASOB herbicidal rating ([9]; rate 0.0620 kg/ha) | ZEAMX herbicidal rating (ZEAMX (Corn, Field); rate 0.0620 kg/ha)
8.5: herbicidal rating, ECHORC ([12]; rate 0.0320 kg/ha) | Preemergence herbicidal rating ABUTH ([13]; Rate 0.0620 kg/ha)
7.0: Preemergence herbicidal rating TRZAWR ([5]; Rate 0.2500 kg/ha) | herbicidal rating, ECHORC ([12]; rate 0.0080 kg/ha)
5.0: ECHCG herbicidal rating ([1]; rate 0.0620 kg/ha) | Preemergence herbicidal rating AMBEL ([3]; Rate 0.1250 kg/ha) | Preemergence herbicidal rating TRZAWR ([5]; Rate 0.1250 kg/ha) | Preemergence herbicidal rating ORYSAT (ORYSAT (Rice, Tebonnet) [8]; Rate 0.2500 kg/ha) | CASOB herbicidal rating ([9]; rate 0.0320 kg/ha) | ORYSAT herbicidal rating (ORYSAT (Rice, Tebonnet) [14]; rate 0.0620 kg/ha)
1.5: herbicidal rating, ORYSAT (rice tolerance) (ORYSAT (Rice, Tebonnet) [15]; rate 0.0080 kg/ha)
4.5: TRZAWR herbicidal rating ([6]; rate 0.0620 kg/ha)
2.5: herbicidal rating, ORYSAT (rice tolerance) (ORYSAT (Rice, Tebonnet) [15]; rate 0.0320 kg/ha)
0.5: Preemergence herbicidal rating CASOB ([2]; Rate 0.0620 kg/ha)
3.0: Preemergence herbicidal rating CASOB ([2]; Rate 0.1250 kg/ha)
2.0: Preemergence herbicidal rating TRZAWR ([5]; Rate 0.0620 kg/ha) | Preemergence herbicidal rating ORYSAT (ORYSAT (Rice, Tebonnet) [8]; Rate 0.0620 kg/ha)
3.5: Preemergence herbicidal rating AMBEL ([3]; Rate 0.0620 kg/ha) | Preemergence herbicidal rating ORYSAT (ORYSAT (Rice, Tebonnet) [8]; Rate 0.1250 kg/ha) | herbicidal rating, ORYSAT (rice tolerance) (ORYSAT (Rice, Tebonnet) [15]; rate 0.1250 kg/ha)
0.0: herbicidal rating, SAGPY ([17]; rate 0.0080 kg/ha) | herbicidal rating, SAGPY ([17]; rate 0.0320 kg/ha)
5.5: Preemergence herbicidal rating CASOB ([2]; Rate 0.2500 kg/ha) | ZEAMX herbicidal rating (ZEAMX (Corn, Field); rate 0.0320 kg/ha)
4.0: ECHCG herbicidal rating ([1]; rate 0.0320 kg/ha) | TRZAWR herbicidal rating ([6]; rate 0.0320 kg/ha) | ORYSAT herbicidal rating (ORYSAT (Rice, Tebonnet) [14]; rate 0.0320 kg/ha)

Cn1c(C(F)(F)F)cc(=O)n(-c2ccc3snc(C4OCC5(CO4)CO5)c3c2)c1=O (stereo not drawn) [Compound 70, 1-methyl-3-(3-spiro[m-dioxane-5,2′-oxiran]-2-yl-1,2-benzisothiazol-5-yl)-6-(trifluoromethyl)uracil]
9.0: Preemergence herbicidal rating AMBEL ([3]; Rate 0.1250 kg/ha) | Preemergence herbicidal rating CHEAL ([4]; Rate 0.0620 kg/ha) | Preemergence herbicidal rating CHEAL ([4]; Rate 0.1250 kg/ha) | IPOHE herbicidal rating ([7]; rate 0.0620 kg/ha) | AMBEL herbicidal rating ([10]; rate 0.0320 kg/ha) | AMBEL herbicidal rating ([10]; rate 0.0620 kg/ha) | CHEAL herbicidal rating ([11]; rate 0.0320 kg/ha) | CHEAL herbicidal rating ([11]; rate 0.0620 kg/ha) | Preemergence herbicidal rating ABUTH ([13]; Rate 0.0620 kg/ha) | Preemergence herbicidal rating ABUTH ([13]; Rate 0.1250 kg/ha) | ABUTH herbicidal rating ([16]; rate 0.0320 kg/ha) | ABUTH herbicidal rating ([16]; rate 0.0620 kg/ha)
2.0: Preemergence herbicidal rating CASOB ([2]; Rate 0.0620 kg/ha) | Preemergence herbicidal rating CASOB ([2]; Rate 0.1250 kg/ha)
0.0: herbicidal rating, ECHORC ([12]; rate 0.0080 kg/ha) | herbicidal rating, ECHORC ([12]; rate 0.0320 kg/ha) | herbicidal rating, ECHORC ([12]; rate 0.1250 kg/ha) | herbicidal rating, ORYSAT (rice tolerance) (ORYSAT (Rice, Tebonnet) [15]; rate 0.0080 kg/ha) | herbicidal rating, ORYSAT (rice tolerance) (ORYSAT (Rice, Tebonnet) [15]; rate 0.0320 kg/ha) | herbicidal rating, ORYSAT (rice tolerance) (ORYSAT (Rice, Tebonnet) [15]; rate 0.1250 kg/ha) | herbicidal rating, SAGPY ([17]; rate 0.0080 kg/ha) | herbicidal rating, SAGPY ([17]; rate 0.0320 kg/ha) | herbicidal rating, SAGPY ([17]; rate 0.1250 kg/ha)
7.0: Preemergence herbicidal rating AMBEL ([3]; Rate 0.0620 kg/ha) | Preemergence herbicidal rating TRZAWR ([5]; Rate 0.1250 kg/ha) | IPOHE herbicidal rating ([7]; rate 0.0320 kg/ha) | ZEAMX herbicidal rating (ZEAMX (Corn, Field); rate 0.0620 kg/ha)
5.0: TRZAWR herbicidal rating ([6]; rate 0.0320 kg/ha) | CASOB herbicidal rating ([9]; rate 0.0320 kg/ha) | CASOB herbicidal rating ([9]; rate 0.0620 kg/ha) | ORYSAT herbicidal rating (ORYSAT (Rice, Tebonnet) [14]; rate 0.0320 kg/ha)
4.0: ECHCG herbicidal rating ([1]; rate 0.0620 kg/ha)
6.0: Preemergence herbicidal rating ORYSAT (ORYSAT (Rice, Tebonnet) [8]; Rate 0.1250 kg/ha) | ORYSAT herbicidal rating (ORYSAT (Rice, Tebonnet) [14]; rate 0.0620 kg/ha)
3.0: ECHCG herbicidal rating ([1]; rate 0.0320 kg/ha) | Preemergence herbicidal rating TRZAWR ([5]; Rate 0.0620 kg/ha) | Preemergence herbicidal rating ORYSAT (ORYSAT (Rice, Tebonnet) [8]; Rate 0.0620 kg/ha)
6.5: ZEAMX herbicidal rating (ZEAMX (Corn, Field); rate 0.0320 kg/ha)
5.5: TRZAWR herbicidal rating ([6]; rate 0.0620 kg/ha)
